The values below come from US20090042942A1 (priority 2005, published 2009).

This test deals with T1, human muscarinic acetylcholine M3 receptor (M3-ACh) (Homo sapiens, UniProt P20309).
T1 construct: expressed in transfected cells; host or cells: CHO-KL (Chinese Hamster Ovary) cells, membranes
T1 sequence (P20309 whole entry): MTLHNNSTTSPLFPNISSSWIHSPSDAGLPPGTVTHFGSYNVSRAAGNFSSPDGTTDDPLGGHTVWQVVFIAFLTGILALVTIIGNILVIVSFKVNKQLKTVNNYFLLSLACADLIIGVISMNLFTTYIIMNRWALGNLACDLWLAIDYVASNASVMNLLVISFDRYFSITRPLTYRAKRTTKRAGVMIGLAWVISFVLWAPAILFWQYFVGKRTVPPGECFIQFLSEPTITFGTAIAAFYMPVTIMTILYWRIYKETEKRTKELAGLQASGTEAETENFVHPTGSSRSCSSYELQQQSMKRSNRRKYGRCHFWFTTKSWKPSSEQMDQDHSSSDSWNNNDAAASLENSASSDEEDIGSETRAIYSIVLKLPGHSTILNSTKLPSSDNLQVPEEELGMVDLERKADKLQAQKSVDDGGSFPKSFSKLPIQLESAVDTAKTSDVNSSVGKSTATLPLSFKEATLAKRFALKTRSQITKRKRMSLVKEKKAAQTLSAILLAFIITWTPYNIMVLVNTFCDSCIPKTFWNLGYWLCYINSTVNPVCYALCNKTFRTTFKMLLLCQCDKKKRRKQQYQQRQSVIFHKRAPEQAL
The test can be described thus: biochemical. Type of test: binding.
In the case of `CN1CC[C@H](OC(=O)[C@@](C)(c2ccccc2)C2CCCC2)C1` [Example 1f, (3S)-1-Methylpyrrolidin-3-yl (2R)-2-cyclopentyl-2-phenylpropanoate], the IC50 was 20 nM.
Under `CN1CC[C@@H](OC(=O)[C@@](C)(c2ccccc2)C2CCCC2)C1` [Example 2a, (3R)-1-Methylpyrrolidin-3-yl (2R)-2-cyclopentyl-2-phenylpropanoate] stands 7.94 nM.
For `CN1CC[C@H](OC(=O)[C@](C)(c2ccccc2)C2CCCC2)C1` [Example 3c, (3S)-1-Methylpyrrolidin-3-yl (2S)-2-cyclopentyl-2-phenylpropanoate] the value was 3.16 nM; for `CN1CC[C@@H](OC(=O)[C@](C)(c2ccccc2)C2CCCC2)C1` [Example 4a, (3R)-1-Methylpyrrolidin-3-yl (2S)-2-cyclopentyl-2-phenylpropanoate], 0.794 nM.
Compound `C[C@@](C(=O)O[C@@H]1CCC[N+](C)(C)C1)(c1ccccc1)C1CCCC1` [Example 5, (3R)-3-{[(2S)-2-Cyclopentyl-2-phenylpropanoyl]oxy}-1,1-dimethylpiperidinium iodide] had an IC50 of 1.26 nM.
For `C[C@@](C(=O)O[C@H]1CCC[N+](C)(C)C1)(c1ccccc1)C1CCCC1` [Example 6, (3S)-3-{[(2S)-2-Cyclopentyl-2-phenylpropanoyl]oxy}-1,1-dimethylpiperidinium iodide] the value was 20 nM.
